How the values were obtained:
IRAK4 [1] = molecular target: T1, IRAK4 (Homo sapiens (Human), UniProt Q9NWZ3); test: Biochemical Z'-Lyte FRET assay for IRAK4 kinase inhibition; conditions: 2 nM enzyme, 1 mM ATP, 2 μM substrate
In short: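 Z′-Lyte FRET phosphorylation of Ser/Thr 7 peptide (2 µM) by 2 nM recombinant IRAK4 at 1 mM ATP in HEPES pH 7.5 with MgCl2/MnCl2, after 10 min enzyme–compound preincubation; 1 h at room temperature, then 1 h development, 460/530 nm emission. Duplicate 12-point, 3-fold curves from 30 µM; IC50 from percent inhibition against ±100% controls.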

IRAK4 [2] = molecular target: T1, IRAK4; test: Western blot assay for assessing degradation of IRAK4 in MCF7 cells; assay type: cell-based; conditions: 24 hour incubation
In short: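 MCF7 cells were treated 24 h with serially diluted compound (0.1% DMSO final), then lysed in RIPA. IRAK4 and IRAK1 levels were measured by western blot with β-actin probed alongside. Percent degradation compared compound-treated with DMSO-treated lysates.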

IRAK4 [3] = molecular target: T1, IRAK4; test: Western blots of IRAK4 protein degradation; assay type: cell-based; conditions: from western blots
[4] = Table 5, IRAK4 degradation, read-out: IRAK4 DC50
[5] = Table 5, IRAK4 degradation, read-out: IRAK4 Dmax (%)

T1 sequence (Q9NWZ3 whole entry): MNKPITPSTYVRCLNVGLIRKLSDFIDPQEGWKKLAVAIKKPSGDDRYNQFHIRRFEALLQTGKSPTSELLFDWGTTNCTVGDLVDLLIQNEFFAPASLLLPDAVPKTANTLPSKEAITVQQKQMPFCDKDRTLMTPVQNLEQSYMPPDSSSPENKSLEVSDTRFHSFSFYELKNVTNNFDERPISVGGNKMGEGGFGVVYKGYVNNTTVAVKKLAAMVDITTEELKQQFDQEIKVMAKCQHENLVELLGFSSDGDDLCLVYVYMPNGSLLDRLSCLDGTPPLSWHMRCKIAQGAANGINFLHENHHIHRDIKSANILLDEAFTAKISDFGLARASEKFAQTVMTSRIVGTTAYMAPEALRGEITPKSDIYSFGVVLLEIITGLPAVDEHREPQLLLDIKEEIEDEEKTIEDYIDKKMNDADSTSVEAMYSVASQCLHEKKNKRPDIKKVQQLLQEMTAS

Structure (SMILES) | IC50 (IRAK4 [1]) [nM] | DC50 (IRAK4 [2]; [4]) [nM] | Dmax (IRAK4 [2]; [5]) [%] | DC50 (IRAK4 [2]; western blot, read-out: DC50 (IRAK4 degradation)) [nM] | Dmax (IRAK4 [2]; western blot, read-out: Dmax (IRAK4 degradation)) [%] | DC50 (IRAK4 [3]) [nM] | Dmax (IRAK4 [3]; read-out: Dmax) [%]
CN(CCOc1ccc2c(c1)C(=O)N(C1CCC(=O)NC1=O)C2=O)c1cccc(-n2c(NC(=O)c3cccc(C(F)(F)F)c3)nc3cc(F)ccc32)c1 (stereo not drawn) [compound 50, N-(1-(3-((2-((2-(2,6-dioxopiperidin-3-yl)-1,3-dioxoisoindolin-5-yl)oxy)ethyl)(methyl)amino)phenyl)-5-fluoro-1H-benzo[d]imidazol-2-yl)-3-(trifluoromethyl)benzamide] | ≥ 1000 | ≥ 1000 |  |  |  |  | 
N#Cc1ccc2ncnc(N[C@H]3CC[C@H](N4CCN(S(=O)(=O)CCOCCOc5ccc6c(c5)C(=O)N(C5CCC(=O)NC5=O)C6=O)CC4)CC3)c2c1 (stereo partly drawn) [compound 34] | ≥ 1000 | ≥ 1000 |  |  |  |  | 
N#Cc1ccc2ncnc(N[C@H]3CC[C@H](N4CCN(CCOCCOCCOCCOCCOc5ccc6c(c5)C(=O)N(C5CCC(=O)NC5=O)C6=O)CC4)CC3)c2c1 (stereo partly drawn) [compound 33] | ≥ 1000 | ≥ 1000 |  |  |  |  | 
O=C1CCC(N2C(=O)c3ccc(OCCN4CCC(CN5CCN(Cc6ccc7c(c6)nc(NC(=O)c6cccc(C(F)(F)F)c6)n7[C@H]6CC[C@@H](CO)CC6)CC5)CC4)cc3C2=O)C(=O)N1 (stereo partly drawn) [compound 10] | < 30 | 30 to 100 |  |  |  |  | 
Cc1ncsc1-c1ccc(CNC(=O)[C@@H]2C[C@@H](O)CN2C(=O)[C@@H](NC(=O)COCCN2CCN(Cc3ccc4c(c3)nc(NC(=O)c3cccc(C(F)(F)F)c3)n4C3CCC(CO)CC3)CC2)C(C)(C)C)cc1 (mixture of isomers) [compound 11, (2S,4R)-4-hydroxy-1-((S)-2-(2-(2-(4-((1-((1SR,4SR)-4-(hydroxymethyl)cyclohexyl)-2-(3-(trifluoromethyl)benzamido)-1H-benzo[d]imidazol-5-yl)methyl)piperazin-1-yl)ethoxy)acetamido)-3,3-dimethylbutanoyl)-N-(4-(4-methylthiazol-5-yl)benzyl)pyrrolidine-2-carboxamide] | 300 to 1000 | ≥ 1000 | > 70 |  |  |  | 
N#Cc1ccc2ncnc(N[C@H]3CC[C@H](N4CCN(CCOCCOc5ccc6c(c5)C(=O)N(C5CCC(=O)NC5=O)C6=O)CC4)CC3)c2c1 (stereo partly drawn) [compound 30] | 300 to 1000 | ≥ 1000 |  |  |  |  | 
N#Cc1ccc2ncnc(N[C@H]3CC[C@@H](N4CCN(S(=O)(=O)CCOCCOCCOCCOCCOc5ccc6c(c5)C(=O)N(C5CCC(=O)NC5=O)C6=O)CC4)CC3)c2c1 (stereo partly drawn) [compound 41] | ≥ 1000 | ≥ 1000 |  |  |  |  | 
O=C1CCC(N2C(=O)c3ccc(OCCOCCOCCOC[C@H]4CC[C@@H](n5c(NC(=O)c6cccc(C(F)(F)F)c6)nc6cc(F)ccc65)CC4)cc3C2=O)C(=O)N1 (stereo partly drawn) [compound 47, N-(1-((1s,4s)-4-((2-(2-(2-((2-(2,6-dioxopiperidin-3-yl)-1,3-dioxoisoindolin-5-yl)oxy)ethoxy)ethoxy)ethoxy)methyl)cyclohexyl)-5-fluoro-1H-benzo[d]imidazol-2-yl)-3-(trifluoromethyl)benzamide] | ≥ 1000 | ≥ 1000 |  |  |  |  | 
O=C1CCC(N2C(=O)c3ccc(N4CCC(CN5CCN(Cc6ccc7c(c6)nc(NC(=O)c6cccc(C(F)(F)F)c6)n7[C@H]6CC[C@@H](CO)CC6)CC5)CC4)cc3C2=O)C(=O)N1 (stereo partly drawn) [compound 9, N-(5-((4-((1-(2-(2,6-dioxopiperidin-3-yl)-1,3-dioxoisoindolin-5-yl)piperazin-4-yl)methyl)piperzin-1-yl)methyl)-1-((1s,4s)-4-(hydroxymethyl)cyclohexyl)-1H-benzo[d]imidazol-2-yl)-3-(trifluoromethyl)benzamide] | < 30 | < 30 | > 70 |  |  |  | 
O=C1CCC(N2C(=O)c3ccc(OCCN4CCN(Cc5ccc6c(c5)nc(NC(=O)c5cccc(C(F)(F)F)c5)n6[C@H]5CC[C@@H](CO)CC5)CC4)cc3C2=O)C(=O)N1 (stereo partly drawn) [compound 1, N-(5-((4-(2-((2-(2,6-dioxopiperidin-3-yl)-1,3-dioxoisoindolin-5-yl)oxy)ethyl)piperazin-1-yl)methyl)-1-((1s,4s)-4-(hydroxymethyl)cyclohexyl)-1H-benzo[d]imidazol-2-yl)-3-(trifluoromethyl)benzamide] | < 30 | 100 to 300 |  |  |  |  | 
CC1CCC(n2c(NC(=O)c3cccc(C(F)(F)F)c3)nc3cc(CN4CCN(CCOCCOc5ccc6c(c5)C(=O)N(C5CCC(=O)NC5=O)C6=O)CC4)ccc32)CC1 (stereo not drawn) [compound 7, N-(5-((4-(2-(2-((2-(2,6-dioxopiperidin-3-yl)-1,3-dioxoisoindolin-5-yl)oxy)ethoxy)ethyl)piperazin-1-yl)methyl)-1-((1s,4s)-4-methylcyclohexyl)-1H-benzo[d]imidazol-2-yl)-3-(trifluoromethyl)benzamide] | 100 to 300 | ≥ 1000 | 30 to 50 |  |  |  | 

Next, values leading:

IC50 (IRAK4 [1]) [nM] | DC50 (IRAK4 [2]; [4]) [nM] | Dmax (IRAK4 [2]; [5]) [%] | DC50 (IRAK4 [2]; western blot, read-out: DC50 (IRAK4 degradation)) [nM] | Dmax (IRAK4 [2]; western blot, read-out: Dmax (IRAK4 degradation)) [%] | DC50 (IRAK4 [3]) [nM] | Dmax (IRAK4 [3]; read-out: Dmax) [%] | Structure (SMILES)
< 30 | < 30 | 50 to 70 | 3.5 | 73 | 3.5 | 73 | COc1cc2nn(C3CCN(CCOCCOc4ccc5c(c4)CN(C4CCC(=O)NC4=O)C5=O)CC3)cc2cc1NC(=O)c1cccc(C(F)(F)F)n1 (stereo not drawn) [compound 60, N-(2-(1-(2-(2-((2-(2,6-dioxopiperidin-3-yl)-1-oxoisoindolin-5-yl)oxy)ethoxy)ethyl)piperidin-4-yl)-6-methoxy-2H-indazol-5-yl)-6-(trifluoromethyl)picolinamide]
≥ 1000 | ≥ 1000 |  |  |  |  |  | CN(CCOCCOCCOCCOc1ccc2c(c1)C(=O)N(C1CCC(=O)NC1=O)C2=O)c1cccc(-n2c(NC(=O)c3cccc(C(F)(F)F)c3)nc3cc(F)ccc32)c1 (stereo not drawn) [compound 52, N-(1-(3-((2-(2-(2-(2-((2-(2,6-dioxopiperidin-3-yl)-1,3-dioxoisoindolin-5-yl)oxy)ethoxy)ethoxy)ethoxy)ethyl)(methyl)amino)phenyl)-5-fluoro-1H-benzo[d]imidazol-2-yl)-3-(trifluoromethyl)benzamide]
< 30 | 30 to 100 | > 70 |  |  |  |  | COc1cc2nn(C3CCN(CC4CCN(CCOc5ccc6c(c5)C(=O)N(C5CCC(=O)NC5=O)C6=O)CC4)CC3)cc2cc1NC(=O)c1cccc(C(F)(F)F)n1 (stereo not drawn) [compound 63, N-(2-(1-((1-(2-((2-(2,6-dioxopiperidin-3-yl)-1,3-dioxoisoindolin-5-yl)oxy)ethyl)piperadin-4-yl)methyl)piperidin-4-yl)-6-methoxy-2H-indazol-5-yl)-6-(trifluoromethyl)picolinamide]
≥ 1000 | ≥ 1000 |  |  |  |  |  | O=C1CCC(N2C(=O)c3ccc(OCCN4CCN(Cc5ccc6c(c5)nc(NC(=O)c5cccc(C(F)(F)F)c5)n6-c5ccccc5)CC4)cc3C2=O)C(=O)N1 (stereo not drawn) [compound 55, N-(5-((4-(2-((2-(2,6-dioxopiperidin-3-yl)-1,3-dioxoisoindolin-5-yl)oxy)ethyl)piperazin-1-yl)methyl)-1-phenyl-1H-benzo[d]imidazol-2-yl)-3-(trifluoromethyl)benzamide]
≥ 1000 | ≥ 1000 |  |  |  |  |  | O=C1CCC(N2C(=O)c3ccc(OCCOCCOCCN4CCN(Cc5ccc6c(c5)nc(NC(=O)c5cccc(C(F)(F)F)c5)n6-c5ccccc5)CC4)cc3C2=O)C(=O)N1 (stereo not drawn) [compound 53, N-(5-((4-(2-(2-(2-((2-(2,6-dioxopiperidin-3-yl)-1,3-dioxoisoindolin-5-yl)oxy)ethoxy)ethoxy)ethyl)piperazin-1-yl)methyl)-1-phenyl-1H-benzo[d]imidazol-2-yl)-3-(trifluoromethyl)benzamide]
< 30 | < 30 | 50 to 70 |  |  |  |  | COc1cc2nn(C3CCN(CCOCCOc4ccc5c(c4)C(=O)N(C4CCC(=O)NC4=O)C5=O)CC3)cc2cc1NC(=O)c1cccc(C(F)(F)F)n1 (stereo not drawn) [compound 58, N-(2-(1-(2-(2-((2-(2,6-dioxopiperidin-3-yl)-1,3-dioxoisoindolin-5-yl)oxy)ethoxy)ethyl)piperidin-4-yl)-6-methoxy-2H-indazol-5-yl)-6-(trifluoromethyl)picolinamide]
≥ 1000 | ≥ 1000 |  |  |  |  |  | CN(CCOCCOc1ccc2c(c1)C(=O)N(C1CCC(=O)NC1=O)C2=O)c1cccc(-n2c(NC(=O)c3cccc(C(F)(F)F)c3)nc3cc(F)ccc32)c1 (stereo not drawn) [compound 51, N-(1-(3-((2-(2-((2-(2,6-dioxopiperidin-3-yl)-1,3-dioxoisoindolin-5-yl)oxy)ethoxy)ethyl)(methyl)amino)phenyl)-5-fluoro-1H-benzo[d]imidazol-2-yl)-3-(trifluoromethyl)benzamide]
< 30 | ≥ 1000 |  |  |  |  |  | COc1cc2nn(C3CCN(CCOCCOCCOc4ccc5c(c4)CN(C4CCC(=O)NC4=O)C5=O)CC3)cc2cc1NC(=O)c1cccc(C(F)(F)F)n1 (stereo not drawn) [compound 61, N-(2-(1-(2-(2-(2-((2-(2,6-dioxopiperidin-3-yl)-1-oxoisoindolin-5-yl)oxy)ethoxy)ethoxy)ethyl)piperadin-4-yl)-6-methoxy-2H-indazol-5-yl)-6-(trifluoromethyl)picolinamide]
